Our source for the Ki and melting point values is US20140296212A1, “SUBSTITUTED PHENOXYPROPYLCYCLOAMINE DERIVATIVES AS HISTAMINE-3 (H3) RECEPTOR LIGANDS” (CEPHALON, INC., priority 2009, published 2014).

One data set has as its target T1, human H3 receptor (Homo sapiens, UniProt Q9Y5N1).
T1 construct: expressed in transfected cells
In words: Human H3 radioligand binding ([3H]-N-alpha-methylhistamine, SPA). To be noted: membranes of CHO cells expressing human H3. The procedure, abridged:
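Membranes from H3-expressing cells (10 μg protein/well) in 50 mM Tris HCl pH 7.4, 5 mM MgCl2, 0.1% BSA with ~1 nM [3H]-N-alpha-methylhistamine and compound (0.01 nM–30 μM), SPA beads, 4 h, room temperature, dark. Non-specific binding defined with 10 μM clobenpropit; bound radioligand read by scintillation counting.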

Data set [1] has as its target T2, rat histamine H3 receptor (Rattus norvegicus, UniProt Q9QYN8).
T2 construct: encoding the entire 445-amino-acid rat histamine H3 receptor; expressed in transfected cells
In words: Rat H3 radioligand binding ([3H]-N-alpha-methylhistamine, SPA). To be noted: membranes of CHO-A3 cells expressing rat H3; [3H]-N-alpha-methylhistamine; read-out: Rat H3 Ki. The procedure, abridged:
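Membranes from CHO-A3 cells stably expressing full-length rat H3 receptor (445 aa) incubated with ~1 nM [3H]-N-alpha-methylhistamine and compound (0.01 nM–30 μM) in 50 mM Tris HCl pH 7.4, 5 mM MgCl2, 0.1% BSA, 4 h, room temperature; SPA bead read-out. Non-specific binding defined with 10 μM clobenpropit.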

T1 sequence (Q9Y5N1 whole entry): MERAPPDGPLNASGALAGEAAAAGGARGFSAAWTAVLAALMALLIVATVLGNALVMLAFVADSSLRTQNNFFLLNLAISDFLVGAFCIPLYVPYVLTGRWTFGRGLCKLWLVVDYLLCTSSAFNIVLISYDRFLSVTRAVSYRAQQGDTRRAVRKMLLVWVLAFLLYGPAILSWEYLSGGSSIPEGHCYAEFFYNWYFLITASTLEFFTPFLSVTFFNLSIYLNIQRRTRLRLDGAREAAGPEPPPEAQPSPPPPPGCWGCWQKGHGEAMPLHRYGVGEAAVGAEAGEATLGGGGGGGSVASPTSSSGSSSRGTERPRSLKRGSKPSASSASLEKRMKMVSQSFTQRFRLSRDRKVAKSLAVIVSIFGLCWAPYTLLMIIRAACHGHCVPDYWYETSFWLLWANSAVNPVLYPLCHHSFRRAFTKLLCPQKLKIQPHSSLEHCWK
T2 sequence (Q9QYN8 whole entry): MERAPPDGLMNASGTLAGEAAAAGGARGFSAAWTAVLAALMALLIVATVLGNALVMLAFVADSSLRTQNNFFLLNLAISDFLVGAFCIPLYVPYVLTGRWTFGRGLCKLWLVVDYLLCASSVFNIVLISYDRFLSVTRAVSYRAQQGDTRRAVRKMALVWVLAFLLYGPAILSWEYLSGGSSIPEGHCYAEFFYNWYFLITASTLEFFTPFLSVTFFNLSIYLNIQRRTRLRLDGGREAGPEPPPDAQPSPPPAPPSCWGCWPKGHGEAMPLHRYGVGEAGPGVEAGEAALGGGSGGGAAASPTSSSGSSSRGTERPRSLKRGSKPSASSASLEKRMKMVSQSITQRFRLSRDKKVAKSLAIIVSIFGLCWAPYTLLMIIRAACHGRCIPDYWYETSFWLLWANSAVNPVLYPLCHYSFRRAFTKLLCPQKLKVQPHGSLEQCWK

The term Ki denotes the dissociation constant of the complex between target and ligand, obtained from inhibition or displacement. What is called melting point is the temperature, or range, at which the solid turns liquid. In turn, `Cc1cc(C(=O)CN2CCN(C(=O)C3CCCCC3)CC2)ccc1OCCCN1CCC[C@H]1C` [Example 148, 2-(4-Cyclohexanecarbonyl-piperazin-1-yl)-1-{3-methyl-4-[3-((R)-2-methyl-pyrrolidin-1-yl)-propoxy]-phenyl}-ethanone] registered a melting point of 161 to 166.5 °C. The compound also had a Ki at human H3 receptor of 0.1 to 100 nM. Besides, the inhibitory constant (Ki) in data set [1] was 0.1 to 100 nM.

Regarding `C[C@@H]1CCCN1CCCOc1ccc(C(=O)CN2CCN(c3ccc(C(F)(F)F)cc3)CC2)cc1` [Example 105, 1-{4-[3-((R)-2-Methyl-pyrrolidin-1-yl)-propoxy]-phenyl}-2-[4-(4-trifluoromethyl-phenyl)-piperazin-1-yl]-ethanone], the melting point fell in the range of 230 to 233 °C. The compound also returned an inhibition constant Ki at human H3 receptor of 0.1 to 100 nM. The Ki in data set [1] lay in the range of 0.1 to 100 nM.

`O=C(CN1CCOCC1)c1ccc(OCCCN2CCCCC2)cc1` [Example 78, 2-Morpholin-4-yl-1-[4-(3-piperidin-1-yl-propoxy)-phenyl]-ethanone] yielded a melting point of 236 to 243 °C. The same compound returned a Ki at human H3 receptor of 0.1 to 100 nM. Moreover, the inhibition constant Ki in data set [1] is 101 to 500 nM.

The compound `C[C@@H]1CCCN1CCCOc1c(Cl)cc(C(=O)CN2CCN(c3ccccc3)CC2)cc1Cl` [Example 102] returned a melting point of 168 °C. This compound yielded an inhibitory constant (Ki) on human H3 receptor of 101 to 500 nM. Also, the Ki in data set [1] was above 1000 nM.

`C[C@@H]1CCCN1CCCOc1ccc(C(=O)CN2CCC(F)(F)CC2)cc1Cl` [Example 134, 1-{3-Chloro-4-[3-((R)-2-methyl-pyrrolidin-1-yl)-propoxy]-phenyl}-2-(4,4-difluoro-piperidin-1-yl)-ethanone]: the melting point was in the range of 130 to 143 °C. On human H3 receptor, this compound yielded a Ki of 0.1 to 100 nM. Also, the inhibition constant Ki in data set [1] lay in the range of 101 to 500 nM.

In turn, `C[C@@H]1CCCN1CCCOc1ccc(C(=O)CN2CCN(C(=O)c3ccc(F)cc3)CC2)cc1` [Example 101, 2-[4-(4-Fluoro-benzoyl)-piperazin-1-yl]-1-{4-[3-((R)-2-methyl-pyrrolidin-1-yl)-propoxy]-phenyl}-ethanone] registered a melting point of 225 to 229 °C. Besides, on human H3 receptor, the inhibition constant (Ki) was 0.1 to 100 nM. Also, in data set [1], the Ki was 0.1 to 100 nM.

In turn, `C[C@@H]1CCCN1CCCOc1ccc(C(=O)CN2CCN(C(=O)OCc3ccccc3)CC2)cc1` [Example 138, 4-(2-{4-[3-((R)-2-Methyl-pyrrolidin-1-yl)-propoxy]-phenyl}-2-oxo-ethyl)-piperazine-1-carboxylic acid benzyl ester] had a melting point of 183 to 188 °C. The inhibitory constant (Ki) at human H3 receptor lay within 0.1 to 100 nM. For the same compound, the Ki in data set [1] lay in the range of 0.1 to 100 nM.

In turn, `O=C1CN(CCCOc2ccc(C(=O)CN3CCOCC3)cc2)CCN1` [Example 57, 4-{3-[4-(2-Morpholin-4-yl-acetyl)-phenoxy]-propyl}-piperazin-2-one] displayed a melting point of 230 °C. This compound returned a Ki on human H3 receptor above 1000 nM. For the same compound, the Ki in data set [1] is above 1000 nM.

`Cc1cc(C(=O)CN2CCNC(=O)C2)ccc1OCCCN1CCC[C@H]1C` [Example 150, 4-(2-{3-Methyl-4-[3-((R)-2-methyl-pyrrolidin-1-yl)-propoxy]-phenyl}-2-oxo-ethyl)-piperazin-2-one] showed a melting point of 79 to 85 °C. Also, the Ki at human H3 receptor was 0.1 to 100 nM. Further, the inhibition constant (Ki) in data set [1] is 101 to 500 nM.

In the case of `C[C@@H]1CCCN1CCCOc1ccc(C(=O)CN2CCN(C(=O)c3ccco3)CC2)cc1` [Example 81, 2-[4-(Furan-2-carbonyl)-piperazin-1-yl]-1-{4-[3-((R)-2-methyl-pyrrolidin-1-yl)-propoxy]-phenyl}-ethanone], the melting point fell in the range of 130 to 135 °C. The compound also gave an inhibitory constant (Ki) at human H3 receptor of 0.1 to 100 nM. Besides, the Ki in data set [1] was in the range of 0.1 to 100 nM.

Take `Cc1cc(C(=O)CN2CCC(F)(F)CC2)cc(C)c1OCCCN1CCC[C@H]1C` [Example 95, 2-(4,4-Difluoro-piperidin-1-yl)-1-{3,5-dimethyl-4-[3-((R)-2-methyl-pyrrolidin-1-yl)-propoxy]-phenyl}-ethanone]: the melting point was in the range of 140 to 142 °C. The same compound returned an inhibition constant (Ki) on human H3 receptor of 101 to 500 nM. The inhibitory constant (Ki) in data set [1] is above 1000 nM.

`C[C@@H]1CCCN1CCCOc1ccc(C(=O)CN2CCCc3ccccc32)cc1` [Example 108, 2-(3,4-Dihydro-2H-quinolin-1-yl)-1-{4-[3-((R)-2-methyl-pyrrolidin-1-yl)-propoxy]-phenyl}-ethanone] showed a melting point of 166 to 168 °C. The compound further came in with an inhibition constant (Ki) at human H3 receptor of 0.1 to 100 nM. Besides, the inhibition constant Ki in data set [1] is 0.1 to 100 nM.

As to `Cc1cc(C(=O)CN2CCN(C(=O)c3ccccc3)CC2)cc(C)c1OCCCN1CCC[C@H]1C` [Example 106, 2-(4-Benzoyl-piperazin-1-yl)-1-{3,5-dimethyl-4-[3-((R)-2-methyl-pyrrolidin-1-yl)-propoxy]-phenyl}-ethanone], the melting point fell in the range of 110 to 120 °C. Moreover, the Ki at human H3 receptor lay in the range of 0.1 to 100 nM. Moreover, the inhibition constant Ki in data set [1] lay within 101 to 500 nM.

Take `C[C@@H]1CCCN1CCCOc1ccc(C(=O)CN2CCCCc3ccccc32)cc1` [Example 114, 1-{4-[3-((R)-2-Methyl-pyrrolidin-1-yl)-propoxy]-phenyl}-2-(2,3,4,5-tetrahydro-benzo[b]azepin-1-yl)-ethanone]: the melting point is 90 to 96 °C. At human H3 receptor, this compound returned a Ki of 0.1 to 100 nM. The inhibition constant Ki in data set [1] is 0.1 to 100 nM.

`CC(=O)N1CCN(CC(=O)c2ccc(OCCCN3CCC[C@H]3C)cc2)CC1` [Example 63, 2-(4-Acetyl-piperazin-1-yl)-1-{4-[3-((R)-2-methyl-pyrrolidin-1-yl)-propoxy]-phenyl}-ethanone] had a melting point of 125 to 133 °C. At human H3 receptor, this compound showed an inhibitory constant (Ki) of 0.1 to 100 nM. Besides, in data set [1], the Ki lay in the range of 0.1 to 100 nM.

As to `Cc1cc(C(=O)CN2CCN(c3ncccn3)CC2)ccc1OCCCN1CCC[C@H]1C` [Example 130, 1-{3-Methyl-4-[3-((R)-2-methyl-pyrrolidin-1-yl)-propoxy]-phenyl}-2-(4-pyrimidin-2-yl-piperazin-1-yl)-ethanone], the melting point lay within 231.5 to 235 °C. At human H3 receptor, this compound displayed a Ki of 0.1 to 100 nM. Moreover, the Ki in data set [1] lay in the range of 0.1 to 100 nM.

With `O=C(CN1CCOCC1)c1ccc(OCCCN2CCN3CCCCC3C2)cc1` (stereo not drawn) [Example 62, 2-Morpholin-4-yl-1-{4-[3-(octahydro-pyrido[1,2-a]pyrazin-2-yl)-propoxy]-phenyl}-ethanone], the melting point amounted to 251 °C. Moreover, the inhibition constant (Ki) at human H3 receptor fell in the range of 501 to 1000 nM. Also, in data set [1], the inhibition constant (Ki) was above 1000 nM.

In the case of `C[C@@H]1CCCN1CCCOc1ccc(C(=O)CN2CCN(C(=O)C3CCCCC3)CC2)cc1F` [Example 146, 2-(4-Cyclohexanecarbonyl-piperazin-1-yl)-1-{3-fluoro-4-[3-((R)-2-methyl-pyrrolidin-1-yl)-propoxy]-phenyl}-ethanone], the melting point was found to be 232 °C. Moreover, on human H3 receptor, the Ki is 0.1 to 100 nM. In addition, the inhibition constant (Ki) in data set [1] was 0.1 to 100 nM.

`C[C@@H]1CCCN1CCCOc1ccc(C(=O)CN2CCN(C(=O)c3ccccc3)CC2)cc1Cl` [Example 113, 2-(4-Benzoyl-piperazin-1-yl)-1-{3-chloro-4-[3-((R)-2-methyl-pyrrolidin-1-yl)-propoxy]-phenyl}-ethanone] had a melting point of 130 to 137 °C. Further, the inhibition constant Ki at human H3 receptor lay within 0.1 to 100 nM. The Ki in data set [1] lay within 0.1 to 100 nM.

In turn, `C[C@@H]1CCCN1CCCOc1ccc(C(=O)CN2CCN(C(=O)c3cccn3C)CC2)cc1` [Example 84, 2-[4-(1-Methyl-1H-pyrrole-2-carbonyl)-piperazin-1-yl]-1-{4-[3-((R)-2-methyl-pyrrolidin-1-yl)-propoxy]-phenyl}-ethanone] gave a melting point of 221 to 224 °C. For the same compound, the Ki on human H3 receptor fell in the range of 0.1 to 100 nM. Moreover, the Ki in data set [1] was in the range of 0.1 to 100 nM.

`C[C@@H]1CCCN1CCCOc1ccc(C(=O)CN2CCN(S(=O)(=O)c3ccccc3)CC2)cc1` [Example 69, 2-(4-Benzenesulfonyl-piperazin-1-yl)-1-{4-[3-((R)-2-methyl-pyrrolidin-1-yl)-propoxy]-phenyl}-ethanone] registered a melting point of 124 to 135 °C. Further, the Ki at human H3 receptor was in the range of 0.1 to 100 nM. Further, the inhibition constant (Ki) in data set [1] was 0.1 to 100 nM.

As for `CC(C)C(=O)N1CCN(CC(=O)c2ccc(OCCCN3CCC[C@H]3C)c(Cl)c2)CC1` [Example 118, 1-[4-(2-{3-Chloro-4-[3-((R)-2-methyl-pyrrolidin-1-yl)-propoxy]-phenyl}-2-oxo-ethyl)-piperazin-1-yl]-2-methyl-propan-1-one], the melting point is 140 °C (dec.). The compound further had an inhibitory constant (Ki) on human H3 receptor of 0.1 to 100 nM. Besides, in data set [1], the inhibitory constant (Ki) lay within 0.1 to 100 nM.

In the case of `C[C@@H]1CCCN1CCCOc1ccc(C(=O)CN2CCN(c3ccccc3)CC2)cc1` [Example 91, 1-{4-[3-((R)-2-Methyl-pyrrolidin-1-yl)-propoxy]-phenyl}-2-(4-phenyl-piperazin-1-yl)-ethanone], the melting point fell in the range of 145 to 150 °C. This compound also registered an inhibition constant Ki at human H3 receptor of 0.1 to 100 nM. The inhibitory constant (Ki) in data set [1] was in the range of 0.1 to 100 nM.

`C[C@@H]1CCCN1CCCOc1ccc(C(=O)CN2CCN(C(=O)Oc3ccccc3)CC2)cc1` [Example 128, 4-(2-{4-[3-((R)-2-Methyl-pyrrolidin-1-yl)-propoxy]-phenyl}-2-oxo-ethyl)-piperazine-1-carboxylic acid phenyl ester] gave a melting point of 194 to 199 °C. This compound yielded an inhibition constant Ki at human H3 receptor of 0.1 to 100 nM. Also, the Ki in data set [1] fell in the range of 0.1 to 100 nM.

`COC(=O)N1CCN(CC(=O)c2ccc(OCCCN3CCC[C@H]3C)c(Cl)c2)CC1` [Example 132, 4-(2-{3-Chloro-4-[3-((R)-2-methyl-pyrrolidin-1-yl)-propoxy]-phenyl}-2-oxo-ethyl)-piperazine-1-carboxylic acid methyl ester]: the melting point is 122 to 124 °C. The same compound came in with a Ki on human H3 receptor of 0.1 to 100 nM. The Ki in data set [1] fell in the range of 101 to 500 nM.
